Data: patent US20170008888A1 (KYORIN PHARMACEUTICAL CO., LTD., priority 2014, published 2017)

Experiments:
[1] = test system: DNFB-induced ear inflammation mouse model; experiment: DNFB-induced ear inflammation mouse model: cytokine concentrations in ear tissue; type: in vivo, mouse (Balb/c)
Experimental: In vivo T-cell mediated immune response was examined in a mouse model of CHS using the hapten dinitrofluorobenzene (DNFB) as the induction agent. […] On Days 0 and 1 (sensitization), 20 μL of 0.5% v/v DNFB in acetone:olive oil (4:1) was applied to each hindpaw of 8 week old male mice (Balb/c, Charles River Laboratories; 10 mice per group unless otherwise noted). On Day 5 (elicitation) 10 μL of 0.2% v/v DNFB in acetone: olive oil (4:1) was applied to the dorsal surface of the right ear of each animal; 10 μL of acetone: olive oil (4:1) was applied to the dorsal surface of the left ear as control. Treatments were administered by group as indicated in the table below; on days when DNFB was used, the QD and the morning dose of BID as appropriate were administered 30 minutes-1 hr. prior to DNFB application. […] Approximately 24 hours after elicitation (Day 6), a 7 mm tissue punch from the central portion of both ears was collected and wet weights measured. The primary functional assessment was the difference in wet weights of the right (DNFB) vs. left (vehicle) ears compared to the vehicle treatment (Vehicle1-S) as an indicator of inflammation (Table 17). Ear tissue punches were flash frozen, stored at −70° C. and analyzed for cytokines (see below).
Cytokine concentrations after DNFB induction and treatment were analyzed in the weighed and flash frozen tissues of the right (DNFB) and left (control) 7 mm ear punches. The ear tissues were stored at −70° C. until prepared for analysis as follows. Left or right ear tissues from the same treatment group were pooled and crushed with mortar and pestle under liquid nitrogen. Tissue representing 7-8 ear punches by weight was homogenized in Buffer A (50 mM HEPES pH 7.4, 100 mM NaCl) containing 1 tablet EDTA-free Protease Inhibitor (Thermo Fisher Scientific, Rockford, Ill.) per 10 mL, 1× Phosphatase Inhibitor Cocktail II (AG Scientific, San Diego, Calif.), and 1 mM PMSF (Sigma, St. Louis, Mo.). Homogenization was performed in Lysing Matrix D tubes (MP Biomedicals, Solon, Ohio), using the FastPrep-24 instrument (MP Biomedicals) at a speed setting of 6 for 4 cycles of 30 seconds, with cooling on ice in between cycles. The tubes were then centrifuged at 1,000×g for 10 min at 4° C. Supernatant was collected and briefly sonicated using the Microson probe sonicator at setting 3 (Misonix, Farmingdale, N.Y.) before centrifuging again at 10,000×g for 10 min at 4° C. The supernatant was ultracentrifuged at 100,000×g for 1 h at 4° C. in the Optima Max-E (Beckman Coulter, Indianapolis, Ind.) to separate soluble and membrane protein fractions. The soluble (supernatant) fraction was collected and protein concentrations determined using the Dc protein kit (Bio-Rad, Hercules, Calif.). Soluble ear proteins were analyzed in triplicate for cytokine response at a final protein concentration of 4 mg/ml using the Bio-Plex Pro Mouse Cytokine 23-Plex panel (Bio-Rad) as per manufacturer's protocols. Magnetic beads were read on the Bio-Plex MAGPIX multiplex reader instrument using the accompanying xPONENT 4.2 acquisition software (Bio-Rad Laboratories, Hercules, Calif.). Data were analyzed via the Bio-Plex Manager software v6.1 (Bio-Rad Laboratories). Response was calculated as a percentage of the cytokine concentrations measured in the right (DNFB) ears of vehicle 1 dosed (S regimen, i.e. dosed Day 0-5) mice (Table 18).

BRD3 = biological target: T1, BRD3 (Homo sapiens, UniProt Q15059); experiment: Bromodomain binding assay: BRD3
T1 construct: read out by qPCR of the phage DNA
T1 sequence (Q15059 whole entry): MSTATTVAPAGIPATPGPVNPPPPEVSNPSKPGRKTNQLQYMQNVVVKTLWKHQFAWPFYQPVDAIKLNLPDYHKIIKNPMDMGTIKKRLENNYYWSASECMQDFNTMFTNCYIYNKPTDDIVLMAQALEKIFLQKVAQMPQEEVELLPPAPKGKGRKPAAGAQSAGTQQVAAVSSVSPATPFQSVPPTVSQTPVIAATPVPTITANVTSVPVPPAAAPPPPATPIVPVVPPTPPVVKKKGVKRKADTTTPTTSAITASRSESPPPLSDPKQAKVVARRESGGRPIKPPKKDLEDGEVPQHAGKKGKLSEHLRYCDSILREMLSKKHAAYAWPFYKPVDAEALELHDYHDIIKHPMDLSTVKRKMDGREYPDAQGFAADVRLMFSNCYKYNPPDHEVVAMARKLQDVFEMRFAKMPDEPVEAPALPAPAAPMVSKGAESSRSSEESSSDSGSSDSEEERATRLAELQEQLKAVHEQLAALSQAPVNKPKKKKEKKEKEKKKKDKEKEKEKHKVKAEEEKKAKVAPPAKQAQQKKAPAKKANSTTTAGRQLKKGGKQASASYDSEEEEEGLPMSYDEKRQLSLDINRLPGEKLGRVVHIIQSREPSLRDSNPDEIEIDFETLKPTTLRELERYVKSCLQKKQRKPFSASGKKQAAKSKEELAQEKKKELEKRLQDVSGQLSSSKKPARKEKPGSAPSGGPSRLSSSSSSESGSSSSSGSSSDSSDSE
Experimental: (§1) T7 phage strains displaying bromodomains were grown in parallel in 24-well blocks in an E. coli host derived from the BL21 strain. E. coli were grown to log-phase and infected with T7 phage from a frozen stock (multiplicity of infection=0.4) and incubated with shaking at 32° C. until lysis (90-150 minutes). The lysates were centrifuged (5,000×g) and filtered (0.2 μm) to remove cell debris. […] The liganded beads were blocked with excess biotin and washed with blocking buffer (SeaBlock (Pierce), 1% BSA, 0.05 Tween 20, 1 mM DTT) to remove unbound ligand and to reduce non-specific phage binding. […] Test compounds (T62 and 46) were prepared as 1000× stocks in 100% DMSO and subsequently diluted 1:10 in monoethylene glycol (MEG) to create stocks at 100× the screening concentration (resulting stock solution is 10% DMSO/90% MEG). The compounds were then diluted directly into the assays such that the final concentration of DMSO and MEG were 0.1% and 0.9%, respectively. All reactions were performed in polystyrene 96-well plates in a final volume of 0.135 ml. […] The bromodomain concentration in the eluates was measured by qPCR. Compounds were assayed for binding activity against a panel of 40 bromodomain-containing proteins.

BRD4 = biological target: T2, BRD4 (Homo sapiens, UniProt O60885); experiment: Bromodomain binding assay: BRD4
T2 construct: read out by qPCR of the phage DNA
Experimental: as §1

BAZ2A = biological target: T3, BAZ2A (Homo sapiens, UniProt Q9UIF9); experiment: Bromodomain binding assay: BAZ2A
T3 construct: T7 phage strains displaying bromodomains were grown in parallel; made in house; host or cells: E. coli host derived from BL21, infected with T7 phage
T3 sequence (Q9UIF9 1793-1897 limits assumed, species assumed): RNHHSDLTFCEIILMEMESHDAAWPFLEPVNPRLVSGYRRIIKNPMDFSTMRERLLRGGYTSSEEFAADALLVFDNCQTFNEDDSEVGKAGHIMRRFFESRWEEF
Experimental: as §1

Question: What does the source list for `CCOc1cc(C(=O)N2CCCN(C)CC2)ccc1Nc1cc2c(cn1)N(C)C(=O)c1ccccc1N2C` [Compound 8]?
Answer: G-CSF: Mean % Cytokine Concentration in DNFB Treated Right Ears versus Vehicle 1-Dosed (S) Mice ([1]; 25 mg/kg, regimen E): 68%; GM-CSF: Mean % Cytokine Concentration in DNFB Treated Right Ears versus Vehicle 1-Dosed (S) Mice ([1]; 25 mg/kg, regimen E): 40%; IFN-γ: Mean % Cytokine Concentration in DNFB Treated Right Ears versus Vehicle 1-Dosed (S) Mice ([1]; 25 mg/kg, regimen E): 52%; IL-1α: Mean % Cytokine Concentration in DNFB Treated Right Ears versus Vehicle 1-Dosed (S) Mice ([1]; 25 mg/kg, regimen E): 88%; IL-1β: Mean % Cytokine Concentration in DNFB Treated Right Ears versus Vehicle 1-Dosed (S) Mice ([1]; 25 mg/kg, regimen E): 56%; IL-3: Mean % Cytokine Concentration in DNFB Treated Right Ears versus Vehicle 1-Dosed (S) Mice ([1]; 25 mg/kg, regimen E): 67%; IL-5: Mean % Cytokine Concentration in DNFB Treated Right Ears versus Vehicle 1-Dosed (S) Mice ([1]; 25 mg/kg, regimen E): 37%; IL-6: Mean % Cytokine Concentration in DNFB Treated Right Ears versus Vehicle 1-Dosed (S) Mice ([1]; 25 mg/kg, regimen E): 58%; IL-12 (p40): Mean % Cytokine Concentration in DNFB Treated Right Ears versus Vehicle 1-Dosed (S) Mice ([1]; 25 mg/kg, regimen E): 79%; IL-13: Mean % Cytokine Concentration in DNFB Treated Right Ears versus Vehicle 1-Dosed (S) Mice ([1]; 25 mg/kg, regimen E): 74%; IL-17A: Mean % Cytokine Concentration in DNFB Treated Right Ears versus Vehicle 1-Dosed (S) Mice ([1]; 25 mg/kg, regimen E): 69%; KC: Mean % Cytokine Concentration in DNFB Treated Right Ears versus Vehicle 1-Dosed (S) Mice ([1]; 25 mg/kg, regimen E): 39%; MCP-1: Mean % Cytokine Concentration in DNFB Treated Right Ears versus Vehicle 1-Dosed (S) Mice ([1]; 25 mg/kg, regimen E): 44%; MIP-1α: Mean % Cytokine Concentration in DNFB Treated Right Ears versus Vehicle 1-Dosed (S) Mice ([1]; 25 mg/kg, regimen E): 62%; MIP-1β: Mean % Cytokine Concentration in DNFB Treated Right Ears versus Vehicle 1-Dosed (S) Mice ([1]; 25 mg/kg, regimen E): 60%; RANTES: Mean % Cytokine Concentration in DNFB Treated Right Ears versus Vehicle 1-Dosed (S) Mice ([1]; 25 mg/kg, regimen E): 66%; TNF-α: Mean % Cytokine Concentration in DNFB Treated Right Ears versus Vehicle 1-Dosed (S) Mice ([1]; 25 mg/kg, regimen E): 53%; G-CSF: Mean % Cytokine Concentration in DNFB Treated Right Ears versus Vehicle 1-Dosed (S) Mice ([1]; 60 mg/kg, regimen E): 50%; GM-CSF: Mean % Cytokine Concentration in DNFB Treated Right Ears versus Vehicle 1-Dosed (S) Mice ([1]; 60 mg/kg, regimen E): 48%; IFN-γ: Mean % Cytokine Concentration in DNFB Treated Right Ears versus Vehicle 1-Dosed (S) Mice ([1]; 60 mg/kg, regimen E): 58%; IL-1α: Mean % Cytokine Concentration in DNFB Treated Right Ears versus Vehicle 1-Dosed (S) Mice ([1]; 60 mg/kg, regimen E): 188%; IL-1β: Mean % Cytokine Concentration in DNFB Treated Right Ears versus Vehicle 1-Dosed (S) Mice ([1]; 60 mg/kg, regimen E): 62%; IL-3: Mean % Cytokine Concentration in DNFB Treated Right Ears versus Vehicle 1-Dosed (S) Mice ([1]; 60 mg/kg, regimen E): 77%; IL-5: Mean % Cytokine Concentration in DNFB Treated Right Ears versus Vehicle 1-Dosed (S) Mice ([1]; 60 mg/kg, regimen E): 57%; IL-6: Mean % Cytokine Concentration in DNFB Treated Right Ears versus Vehicle 1-Dosed (S) Mice ([1]; 60 mg/kg, regimen E): 61%; IL-12 (p40): Mean % Cytokine Concentration in DNFB Treated Right Ears versus Vehicle 1-Dosed (S) Mice ([1]; 60 mg/kg, regimen E): 88%; IL-13: Mean % Cytokine Concentration in DNFB Treated Right Ears versus Vehicle 1-Dosed (S) Mice ([1]; 60 mg/kg, regimen E): 85%; IL-17A: Mean % Cytokine Concentration in DNFB Treated Right Ears versus Vehicle 1-Dosed (S) Mice ([1]; 60 mg/kg, regimen E): 68%; KC: Mean % Cytokine Concentration in DNFB Treated Right Ears versus Vehicle 1-Dosed (S) Mice ([1]; 60 mg/kg, regimen E): 29%; MCP-1: Mean % Cytokine Concentration in DNFB Treated Right Ears versus Vehicle 1-Dosed (S) Mice ([1]; 60 mg/kg, regimen E): 47%; MIP-1α: Mean % Cytokine Concentration in DNFB Treated Right Ears versus Vehicle 1-Dosed (S) Mice ([1]; 60 mg/kg, regimen E): 62%; MIP-1β: Mean % Cytokine Concentration in DNFB Treated Right Ears versus Vehicle 1-Dosed (S) Mice ([1]; 60 mg/kg, regimen E): 44%; RANTES: Mean % Cytokine Concentration in DNFB Treated Right Ears versus Vehicle 1-Dosed (S) Mice ([1]; 60 mg/kg, regimen E): 53%; TNF-α: Mean % Cytokine Concentration in DNFB Treated Right Ears versus Vehicle 1-Dosed (S) Mice ([1]; 60 mg/kg, regimen E): 81%; G-CSF: Mean % Cytokine Concentration in DNFB Treated Right Ears versus Vehicle 1-Dosed (S) Mice ([1]; 60 mg/kg, regimen S): 36%; GM-CSF: Mean % Cytokine Concentration in DNFB Treated Right Ears versus Vehicle 1-Dosed (S) Mice ([1]; 60 mg/kg, regimen S): 52%; IFN-γ: Mean % Cytokine Concentration in DNFB Treated Right Ears versus Vehicle 1-Dosed (S) Mice ([1]; 60 mg/kg, regimen S): 46%; IL-1α: Mean % Cytokine Concentration in DNFB Treated Right Ears versus Vehicle 1-Dosed (S) Mice ([1]; 60 mg/kg, regimen S): 136%; IL-1β: Mean % Cytokine Concentration in DNFB Treated Right Ears versus Vehicle 1-Dosed (S) Mice ([1]; 60 mg/kg, regimen S): 52%; IL-3: Mean % Cytokine Concentration in DNFB Treated Right Ears versus Vehicle 1-Dosed (S) Mice ([1]; 60 mg/kg, regimen S): 61%; IL-5: Mean % Cytokine Concentration in DNFB Treated Right Ears versus Vehicle 1-Dosed (S) Mice ([1]; 60 mg/kg, regimen S): 37%; IL-6: Mean % Cytokine Concentration in DNFB Treated Right Ears versus Vehicle 1-Dosed (S) Mice ([1]; 60 mg/kg, regimen S): 32%; IL-12 (p40): Mean % Cytokine Concentration in DNFB Treated Right Ears versus Vehicle 1-Dosed (S) Mice ([1]; 60 mg/kg, regimen S): 73%; IL-13: Mean % Cytokine Concentration in DNFB Treated Right Ears versus Vehicle 1-Dosed (S) Mice ([1]; 60 mg/kg, regimen S): 75%; IL-17A: Mean % Cytokine Concentration in DNFB Treated Right Ears versus Vehicle 1-Dosed (S) Mice ([1]; 60 mg/kg, regimen S): 38%; KC: Mean % Cytokine Concentration in DNFB Treated Right Ears versus Vehicle 1-Dosed (S) Mice ([1]; 60 mg/kg, regimen S): 35%; MCP-1: Mean % Cytokine Concentration in DNFB Treated Right Ears versus Vehicle 1-Dosed (S) Mice ([1]; 60 mg/kg, regimen S): 43%; MIP-1α: Mean % Cytokine Concentration in DNFB Treated Right Ears versus Vehicle 1-Dosed (S) Mice ([1]; 60 mg/kg, regimen S): 57%; MIP-1β: Mean % Cytokine Concentration in DNFB Treated Right Ears versus Vehicle 1-Dosed (S) Mice ([1]; 60 mg/kg, regimen S): 52%; RANTES: Mean % Cytokine Concentration in DNFB Treated Right Ears versus Vehicle 1-Dosed (S) Mice ([1]; 60 mg/kg, regimen S): 51%; TNF-α: Mean % Cytokine Concentration in DNFB Treated Right Ears versus Vehicle 1-Dosed (S) Mice ([1]; 60 mg/kg, regimen S): 65%

Question: How did the Kd (BRD3) turn out when `CCOc1cc(C(=O)N[C@H]2CC[C@H](O)CC2)ccc1Nc1cc2c(cn1)N(C)C(=O)c1ccccc1N2C` [Compound T62] was run?
Answer: Its Kd is 110 nM.

Question: What about the Kd (BRD4) of the same molecule?
Answer: Its Kd is 97 nM.

Question: What about the Kd (BAZ2A) of the same molecule?
Answer: The Kd was over 20 µM.
